# Measured values as given in PubChem BioAssay AID200 (DTP/NCI, 2004).
# Several values for one entry are separate records, joined by “and”; a condition that tells them apart may be missing. Equal entries are not always repeated. Toxic doses and inconclusive results are not listed.
# Test system: B6C3F1 mice, B16 melanoma ip, median survival T/C
# Experiment: NCI In Vivo Anticancer Drug Screen. Data for tumor model B16 Melanoma (intraperitoneal) in B6C3F1 mice
# Conditions: endpoint: median survival time, schedule: Q01DX009 (ip), higher = longer survival
# Summary of the method: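 Tumor-bearing mice received test compound; a separate group got vehicle only. Survival was then compared, with results reported as treated over control.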
# [1] = dose: 1.56 mg/kg/injection, vehicle: saline with Tween-80
# [2] = dose: 3.12 mg/kg/injection, vehicle: saline with Tween-80
# [3] = dose: 6.25 mg/kg/injection, vehicle: saline with Tween-80
# [4] = dose: 12.5 mg/kg/injection, vehicle: saline with Tween-80
# [5] = dose: 25.0 mg/kg/injection, vehicle: saline with Tween-80
# [6] = dose: 50.0 mg/kg/injection, vehicle: saline with Tween-80
# [7] = dose: 25.0 mg/kg/injection, vehicle: saline
# [8] = dose: 50.0 mg/kg/injection, vehicle: saline
# [9] = dose: 100.0 mg/kg/injection, vehicle: saline
smiles,measurement,setting,value
C=CC(=O)N1CN(C(=O)C=C)CN(C(=O)C=C)C1,T/C,"dose: 0.78 mg/kg/injection, vehicle: saline with Tween-80",99 % of control
same,T/C,[1],100 % of control
same,T/C,[2],100 % of control
same,T/C,[3],106 % of control
same,T/C,[4],86 % of control
CN1CCN(c2ccc([N+](=O)[O-])c3no[n+]([O-])c23)CC1,T/C,"dose: 2.5 mg/kg/injection, vehicle: saline with Tween-80",101 % of control
same,T/C,"dose: 5.0 mg/kg/injection, vehicle: saline with Tween-80",111 % of control
same,T/C,"dose: 20.0 mg/kg/injection, vehicle: saline with Tween-80",95 % of control
CC1(c2ccc(Cl)cc2)OC(=O)C(=Cc2ccc([N+](=O)[O-])s2)C(=O)O1 (stereo not given),T/C,[3],89 % of control
same,T/C,[4],86 % of control
same,T/C,[5],90 % of control
same,T/C,[6],89 % of control
CCOC(=O)[C@]1(Br)CC[C@@]1(Br)C(=O)OCC,T/C,[4],108 % of control and 104 % of control
same,T/C,[5],110 % of control and 105 % of control
same,T/C,[6],98 % of control and 106 % of control
same,T/C,"dose: 100.0 mg/kg/injection, vehicle: saline with Tween-80",100 % of control and 107 % of control
same,T/C,"dose: 200.0 mg/kg/injection, vehicle: saline with Tween-80",110 % of control and 105 % of control
O=C(O)CSC(CC(=O)O)C(=O)O (stereo not given),T/C,[7],94 % of control
same,T/C,[8],89 % of control
same,T/C,[9],94 % of control
c1cc[c]([Sn]([c]2ccccc2)([c]2ccccc2)[n]2cccc2)cc1,T/C,"dose: 0.79 mg/kg/injection, vehicle: saline with Tween-80",113 % of control
same,T/C,[1],98 % of control
same,T/C,[2],93 % of control
same,T/C,[3],113 % of control
Nc1ncnc2c1ncn2C1OC(CO)C(O)C1O (stereo not given),T/C,"dose: 1.56 mg/kg/injection, vehicle: saline",94 % of control
same,T/C,"dose: 3.12 mg/kg/injection, vehicle: saline",94 % of control
same,T/C,"dose: 6.25 mg/kg/injection, vehicle: saline",96 % of control
same,T/C,"dose: 12.5 mg/kg/injection, vehicle: saline",107 % of control
same,T/C,[7],63 % of control
same,T/C,[8],45 % of control
same,T/C,[9],37 % of control
COC(=O)C[C@](O)(CCC(C)(C)O)C(=O)O[C@@H]1C(OC)=C[C@]23CCCN2CCc2cc4c(cc2[C@H]13)OCO4,T/C,"dose: 0.25 mg/kg/injection, vehicle: saline",124 % of control
same,T/C,"dose: 0.5 mg/kg/injection, vehicle: saline",154 % of control and 161 % of control
same,T/C,"dose: 1.0 mg/kg/injection, vehicle: saline",161 % of control and 168 % of control
same,T/C,"dose: 2.0 mg/kg/injection, vehicle: saline",168 % of control
COC(=O)Nc1nc2ccc(SC)cc2c(=O)[nH]1,T/C,"dose: 25.0 mg/kg/injection, vehicle: Klucel (hydroxypropylcellulose) (HPC)",96 % of control
same,T/C,"dose: 50.0 mg/kg/injection, vehicle: Klucel (hydroxypropylcellulose) (HPC)",101 % of control
same,T/C,"dose: 200.0 mg/kg/injection, vehicle: Klucel (hydroxypropylcellulose) (HPC)",114 % of control
Nc1ccn(C2OC(CO)C(O)C2O)c(=O)n1 (stereo not given),T/C,[7],120 % of control
same,T/C,"dose: 2400.0 mg/kg/injection, vehicle: saline with Tween-80",110 % of control
